Where “and” joins values, the source holds several entries; their conditions need not be identical. Equal entries are not always repeated. Toxic doses and inconclusive results are not listed. No stated cut-off is given here; in the data, active means T/C of 150% or more; inactive means T/C below 125%. Peptide text beside a SMILES is read from it. * marks the point of attachment. Cbz = O=C(OCc1ccccc1)*; NHNH2 = NN*
Test system: L1210 leukemia ip in BDF1 mice, survival T/C
Test: NCI In Vivo Anticancer Drug Screen. Data for tumor model L1210 Leukemia (intraperitoneal) in B6D2F1 (BDF1) mice
Details: higher = longer survival
Summary of the method: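 Transplantable tumor model; survival measured in treated vs vehicle control mice. Value = treated/control.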

[1] = endpoint: mean survival time, dose: 100.0 mg/kg/injection, schedule: Q01DX001 (ip), vehicle: saline
[2] = endpoint: mean survival time, dose: 200.0 mg/kg/injection, schedule: Q01DX001 (ip), vehicle: saline
[3] = endpoint: mean survival time, dose: 100.0 mg/kg/injection, schedule: Q04DX003 (ip), vehicle: Klucel (hydroxypropylcellulose) (HPC)
[4] = endpoint: mean survival time, dose: 75.0 mg/kg/injection, schedule: Q04DX003 (ip), vehicle: saline with Tween-80
[5] = endpoint: mean survival time, dose: 150.0 mg/kg/injection, schedule: Q04DX003 (ip), vehicle: saline with Tween-80
[6] = endpoint: mean survival time, dose: 100.0 mg/kg/injection, schedule: Q04DX003 (ip), vehicle: saline
[7] = endpoint: mean survival time, dose: 400.0 mg/kg/injection, schedule: Q01DX001 (ip), vehicle: saline

Measured: T/C

CCCCCCC(=O)O[C@H]1CC[C@H]2[C@@H]3CCC4=CC(=O)CC[C@]4(C)[C@H]3CC[C@]12C
inactive: endpoint: median survival time, dose: 2.0 mg/kg/injection, schedule: Q04DX024 (ip), vehicle: other 94 % of control | endpoint: median survival time, dose: 4.0 mg/kg/injection, schedule: Q01DX016 (ip), vehicle: other 92 % of control | endpoint: median survival time, dose: 4.0 mg/kg/injection, schedule: Q04DX024 (ip), vehicle: other 94 % of control | endpoint: median survival time, dose: 8.0 mg/kg/injection, schedule: Q01DX008 (ip), vehicle: other 95 % of control | endpoint: median survival time, dose: 8.0 mg/kg/injection, schedule: Q01DX009 (ip), vehicle: other 98 % of control | endpoint: median survival time, dose: 8.0 mg/kg/injection, schedule: Q01DX016 (ip), vehicle: other 92 % of control | endpoint: median survival time, dose: 8.0 mg/kg/injection, schedule: Q04DX024 (ip), vehicle: other 91 % of control | endpoint: median survival time, dose: 16.0 mg/kg/injection, schedule: Q01DX008 (ip), vehicle: other 95 % of control | endpoint: median survival time, dose: 16.0 mg/kg/injection, schedule: Q01DX009 (ip), vehicle: other 97 % of control | endpoint: median survival time, dose: 16.0 mg/kg/injection, schedule: Q01DX016 (ip), vehicle: other 90 % of control | endpoint: median survival time, dose: 16.0 mg/kg/injection, schedule: Q04DX003 (ip), vehicle: other 98 % of control | endpoint: median survival time, dose: 16.0 mg/kg/injection, schedule: Q04DX024 (ip), vehicle: other 94 % of control | endpoint: median survival time, dose: 32.0 mg/kg/injection, schedule: Q01DX008 (ip), vehicle: other 112 % of control | endpoint: median survival time, dose: 32.0 mg/kg/injection, schedule: Q01DX009 (ip), vehicle: other 111 % of control | endpoint: median survival time, dose: 32.0 mg/kg/injection, schedule: Q01DX016 (ip), vehicle: other 95 % of control | endpoint: median survival time, dose: 32.0 mg/kg/injection, schedule: Q04DX003 (ip), vehicle: other 100 % of control | endpoint: median survival time, dose: 32.0 mg/kg/injection, schedule: Q04DX024 (ip), vehicle: other 92 % of control | endpoint: median survival time, dose: 32.0 mg/kg/injection, schedule: Q08DX002 (ip), vehicle: other 102 % of control | endpoint: median survival time, dose: 64.0 mg/kg/injection, schedule: Q01DX001 (ip), vehicle: other 98 % of control | endpoint: median survival time, dose: 64.0 mg/kg/injection, schedule: Q01DX008 (ip), vehicle: other 91 % of control | endpoint: median survival time, dose: 64.0 mg/kg/injection, schedule: Q01DX009 (ip), vehicle: other 92 % of control | endpoint: median survival time, dose: 64.0 mg/kg/injection, schedule: Q01DX016 (ip), vehicle: other 89 % of control | endpoint: median survival time, dose: 64.0 mg/kg/injection, schedule: Q04DX003 (ip), vehicle: other 107 % of control | endpoint: median survival time, dose: 64.0 mg/kg/injection, schedule: Q08DX002 (ip), vehicle: other 98 % of control | endpoint: median survival time, dose: 128.0 mg/kg/injection, schedule: Q01DX001 (ip), vehicle: other 104 % of control | endpoint: median survival time, dose: 128.0 mg/kg/injection, schedule: Q01DX009 (ip), vehicle: other 97 % of control | endpoint: median survival time, dose: 128.0 mg/kg/injection, schedule: Q04DX003 (ip), vehicle: other 101 % of control | endpoint: median survival time, dose: 128.0 mg/kg/injection, schedule: Q08DX002 (ip), vehicle: other 101 % of control | endpoint: median survival time, dose: 256.0 mg/kg/injection, schedule: Q01DX001 (ip), vehicle: other 122 % of control | endpoint: median survival time, dose: 256.0 mg/kg/injection, schedule: Q01DX009 (ip), vehicle: other 106 % of control | endpoint: median survival time, dose: 256.0 mg/kg/injection, schedule: Q04DX003 (ip), vehicle: other 102 % of control | endpoint: median survival time, dose: 256.0 mg/kg/injection, schedule: Q08DX002 (ip), vehicle: other 104 % of control | endpoint: median survival time, dose: 512.0 mg/kg/injection, schedule: Q01DX001 (ip), vehicle: other 101 % of control | endpoint: median survival time, dose: 512.0 mg/kg/injection, schedule: Q08DX002 (ip), vehicle: other 106 % of control

C1=C(c2ccccc2)CC(/C=C/c2ccccc2)(c2ccccc2)C1c1ccccc1 (stereo not given)
inactive: endpoint: mean survival time, dose: 100.0 mg/kg/injection, schedule: Q01DX009 (ip), vehicle: saline with Tween-80 87 % of control

Clc1cccc(C[N+]23CC[N+](Cc4cccc(Cl)c4)(CC2)C3)c1
inactive: [1] 103 % of control | [2] 111 % of control

O=C(O)CC1=C(O)c2ccccc2C(=O)C1=O
inactive: endpoint: mean survival time, dose: 100.0 mg/kg/injection, schedule: Q01DX001 (ip), vehicle: water 97 % of control | endpoint: mean survival time, dose: 200.0 mg/kg/injection, schedule: Q01DX001 (ip), vehicle: water 103 % of control | endpoint: mean survival time, dose: 400.0 mg/kg/injection, schedule: Q01DX001 (ip), vehicle: water 97 % of control

Cc1cc(N=Nc2ccc(N(C)C)cc2)ccn1
inactive: [3] 101 % of control | endpoint: mean survival time, dose: 200.0 mg/kg/injection, schedule: Q04DX003 (ip), vehicle: Klucel (hydroxypropylcellulose) (HPC) 102 % of control | endpoint: mean survival time, dose: 400.0 mg/kg/injection, schedule: Q04DX003 (ip), vehicle: Klucel (hydroxypropylcellulose) (HPC) 91 % of control

Cc1cc(Br)c(I)c([N+](=O)[O-])c1
inactive: endpoint: mean survival time, dose: 37.5 mg/kg/injection, schedule: Q04DX003 (ip), vehicle: saline with Tween-80 104 % of control | [4] 95 % of control | [5] 102 % of control

O=C(Nc1ccc(S(=O)(=O)Nc2ccc(N=Nc3ccc(N=Nc4ccccc4)cc3)cc2)cc1)C(N1CC1)(N1CC1)N1CC1
inactive: endpoint: mean survival time, dose: 15.0 mg/kg/injection, schedule: Q01DX001 (ip), vehicle: saline 104 % of control | endpoint: mean survival time, dose: 30.0 mg/kg/injection, schedule: Q01DX001 (ip), vehicle: saline 117 % of control | endpoint: mean survival time, dose: 60.0 mg/kg/injection, schedule: Q01DX001 (ip), vehicle: saline 102 % of control

CC(O)C(NC(=O)OCc1ccccc1)C(=O)NC(CO)C(=O)NN (stereo not drawn) (Cbz-Thr-Ser-NHNH2; configuration not given here)
inactive: endpoint: mean survival time, dose: 5.0 mg/kg/injection, schedule: Q01DX001 (ip), vehicle: saline 103 % of control | endpoint: mean survival time, dose: 10.0 mg/kg/injection, schedule: Q01DX001 (ip), vehicle: saline 103 % of control | endpoint: mean survival time, dose: 20.0 mg/kg/injection, schedule: Q01DX001 (ip), vehicle: saline 103 % of control | endpoint: mean survival time, dose: 40.0 mg/kg/injection, schedule: Q01DX001 (ip), vehicle: saline 105 % of control | endpoint: mean survival time, dose: 80.0 mg/kg/injection, schedule: Q01DX001 (ip), vehicle: saline 97 % of control | [1] 103 % of control and 98 % of control | [2] 95 % of control

CCOC(=O)C(NC(C)=O)C(N)=S (stereo not given)
inactive: [1] 99 % of control | endpoint: mean survival time, dose: 100.0 mg/kg/injection, schedule: Q01DX009 (ip), vehicle: saline 108 % of control | [6] 102 % of control | [2] 93 % of control | endpoint: mean survival time, dose: 200.0 mg/kg/injection, schedule: Q01DX009 (ip), vehicle: saline 97 % of control | endpoint: mean survival time, dose: 200.0 mg/kg/injection, schedule: Q04DX003 (ip), vehicle: saline 96 % of control | [7] 94 % of control | endpoint: mean survival time, dose: 400.0 mg/kg/injection, schedule: Q01DX009 (ip), vehicle: saline 105 % of control | endpoint: mean survival time, dose: 400.0 mg/kg/injection, schedule: Q04DX003 (ip), vehicle: saline 106 % of control

CC1CN=C(c2ccc(NC(=O)Nc3ccc(NC(=O)c4ccc(C5=NCC(C)N5)cc4)cc3)cc2)N1 (stereo not given)
inactive: endpoint: mean survival time, dose: 62.5 mg/kg/injection, schedule: Q01DX Z (oral), vehicle: water 97 % of control | endpoint: mean survival time, dose: 125.0 mg/kg/injection, schedule: Q01DX Z (oral), vehicle: water 101 % of control | endpoint: mean survival time, dose: 250.0 mg/kg/injection, schedule: Q01DX Z (oral), vehicle: water 100 % of control | endpoint: mean survival time, dose: 500.0 mg/kg/injection, schedule: Q01DX Z (oral), vehicle: water 105 % of control

CCCCSC1CC(=O)N(CCCC)C1=O (stereo not given)
inactive: [4] 100 % of control | endpoint: mean survival time, dose: 100.0 mg/kg/injection, schedule: Q01DX001 (ip), vehicle: saline with Tween-80 103 % of control | [5] 90 % of control | endpoint: mean survival time, dose: 200.0 mg/kg/injection, schedule: Q01DX001 (ip), vehicle: saline with Tween-80 98 % of control | endpoint: mean survival time, dose: 300.0 mg/kg/injection, schedule: Q04DX003 (ip), vehicle: saline with Tween-80 92 % of control | endpoint: mean survival time, dose: 400.0 mg/kg/injection, schedule: Q01DX001 (ip), vehicle: saline with Tween-80 101 % of control

C[N+]1(C)C2CCC1CC(=NO)C2
inactive: endpoint: mean survival time, dose: 75.0 mg/kg/injection, schedule: Q01DX001 (ip), vehicle: saline 104 % of control

CCCC(CCN1CCCC1)(CNC(=O)CN(CC)CC)c1cccc2ccccc12 (stereo not given)
inactive: endpoint: mean survival time, dose: 25.0 mg/kg/injection, schedule: Q04DX003 (ip), vehicle: saline 103 % of control | endpoint: mean survival time, dose: 50.0 mg/kg/injection, schedule: Q04DX003 (ip), vehicle: saline 104 % of control | [6] 106 % of control

CCCCCCCCCCCCCCN(C)C
inactive: endpoint: mean survival time, dose: 25.0 mg/kg/injection, schedule: Q04DX003 (ip), vehicle: Klucel (hydroxypropylcellulose) (HPC) 107 % of control | endpoint: mean survival time, dose: 50.0 mg/kg/injection, schedule: Q04DX003 (ip), vehicle: Klucel (hydroxypropylcellulose) (HPC) 108 % of control | [3] 94 % of control and 96 % of control

NS(=O)(=O)c1ccc(NC(=O)c2ccc(C(=O)Nc3ccc(S(N)(=O)=O)cc3)cc2)cc1
inactive: [1] 100 % of control | [2] 100 % of control | [7] 100 % of control

Reference: PubChem BioAssay AID248 (DTP/NCI, 2004)
